Test results published in patent US12077607B2, “Functional and therapeutic effects of PAR4 cleavage by cathepsin G” (UNIVERSITY OF UTAH RESEARCH FOUNDATION, priority 2021, dated 2024).
No end group written: not given here.

How the values were obtained:
washed platelets [1] = test: Platelet aggregation of human washed platelets; format: cell-based; details: for peptide concentration producing maximal platelet aggregation / platelet aggregation induced by peptide: washed platelets; for platelet aggregation induced by peptide: 1 mM peptide (RA-6mer 1 mM or 10 mM; AL-10mer independent of concentration)
Description: (§1) Platelet isolation, aggregation, and activation. Human washed platelets were prepared and resuspended in Tyrode's Buffer at 2×10^8/mL as described (Edelstein et al., Nat Med. 2013; 19(12):1609-1616). For human and dog platelet comparisons, platelets were prepared using a modified human platelet protocol with final concentrations of […] (Cayman Chemical, Ann Arbor, MI, USA) used during centrifugation steps. Centrifugations after Tyrode's washes was decreased to 1,250×g as described in Cremer et al., PLOS One. 2019; 14(11): e0224891. Platelet aggregation was measured under stirring conditions at 37° C. using a PAP-8E aggregometer after treatment with the following agonists: arachidonic acid (Bio/Data Corporation, Horsham, PA, USA), cathepsin G, elastase, proteinase 3 (Athens Research Group), α-thrombin (Sigma, St. Louis, MO, USA), PAR-1 peptide (SFLLRN) (GL Biochem, China). P-selectin and PAC-1 were measured as previously described (Yee et al., J Thromb Haemost. 2006; 4(9):2043-2050; Tourdot et al., Arterioscler Thromb Vasc Biol. 2014; 34(12):2644-2650).
(§2) GYPGQV-NH2 (SEQ ID NO: 5), RALLLGWVPTR-NH2 (SEQ ID NO: 1), ALLLGWVPTR-NH2 (SEQ ID NO: 2), RALLLG-NH2 (SEQ ID NO: 4). Peptides were synthesized by BIOMATIK (Wilmington, DE, USA) at similar purities. All peptides were suspended in 50% DMSO and 50% ethanol. To measure platelet activation, washed platelets were stimulated with various concentrations of the peptide in the presence of CD41-APC, P-selectin (PE) and PAC-1 (FITC) for 15 minutes at 37° C. and then fixed with FACS Lysis Buffer. Samples were immediately run on a Cytoflex flow cytometer. In some experiments, platelets were stimulated with peptides and platelet aggregation performed as described above. Platelet calcium flux was induced by RALLLGWVPTR (2 mM; SEQ ID NO: 1), CatG (500 nM), ALLLGWVPTR (2 mM; SEQ ID NO: 2) or tyrodes buffer and monitored as described above.

[2] = Ability of peptide to go into solution; format: physicochemical; details: numerous attempts with different solvents
Text: Having said that, perhaps the hydrophobic portion of the C-terminus of RALLLGWVPTR (SEQ ID NO: 1) stabilizes the tethered ligand on the platelet plasma membrane.

PAR-1 = molecular target: T1, PAR-1 (Homo sapiens, UniProt P25116); test: Antagonist study: PAR-1 inhibitor in platelet aggregation; format: cell-based; details: 100 nM VPX
T1 construct: endogenous in cells; host or cells: human washed platelets
T1 sequence (P25116 22-425): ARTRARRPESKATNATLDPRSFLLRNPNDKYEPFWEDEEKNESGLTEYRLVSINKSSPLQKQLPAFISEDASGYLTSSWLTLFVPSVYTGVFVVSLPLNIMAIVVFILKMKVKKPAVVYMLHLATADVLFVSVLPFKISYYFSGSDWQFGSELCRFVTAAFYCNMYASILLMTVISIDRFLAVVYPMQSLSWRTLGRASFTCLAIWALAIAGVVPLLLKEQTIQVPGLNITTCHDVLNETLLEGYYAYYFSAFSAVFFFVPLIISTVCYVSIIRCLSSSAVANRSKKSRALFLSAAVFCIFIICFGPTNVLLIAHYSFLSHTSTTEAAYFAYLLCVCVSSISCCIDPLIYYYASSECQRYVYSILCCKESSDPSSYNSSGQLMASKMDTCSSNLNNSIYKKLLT
Description: Human washed platelets were prepared and resuspended in Tyrode's Buffer at 2×10^8/mL as described (Edelstein et al., Nat Med. 2013; 19(12):1609-1616). […] Platelet aggregation was measured under stirring conditions at 37° C. using a PAP-8E aggregometer after treatment with the following agonists: arachidonic acid (Bio/Data Corporation, Horsham, PA, USA), cathepsin G, elastase, proteinase 3 (Athens Research Group), α-thrombin (Sigma, St. Louis, MO, USA), PAR-1 peptide (SFLLRN) (GL Biochem, China).
Antagonist Studies. Washed platelets were incubated for 15 minutes at 37° C. with PAR-4 blocking antibody RC3 (100 μg/mL) (generous gift from Regeneron Pharmaceuticals; French et al., Blood Adv. 2018; 2(11): 1283-1293), PAR-1 inhibitor vorapaxar (100 nM), and/or PAR-4 inhibitor BMS-986120 (400 nM) (Cayman Chemical, Ann Arbor, MI, USA).

washed platelets [3] = test: Platelet calcium flux assay; format: cell-based, human; details: CatG 500 nM; for platelet calcium flux: peptides 2 mM, FURA2-AM loaded washed platelets
Description: Platelet calcium flux assay. Washed platelets were incubated at 37° C. for 1 hour in Tyrode's buffer (supplemented with pgel and heparin) with Fura-2AM (final concentration 2 μM). Platelets were washed and resuspended to a final concentration of 4×10^8/mL. Platelets were dispensed into a Costar 96-well half area clear bottom plate and placed in the Flexstation 3 (Molecular Devices) where cathepsin G (500 nM), buffer, or peptides (2 mM) were injected onto cells and calcium flux monitored.
as §2

WT human PAR4 (hPAR4) = molecular target: T2, WT human PAR4 (hPAR4) (Homo sapiens, UniProt Q96RI0); test: PAR4 calcium flux assay in HEK293T/17 cells expressing WT PAR4; format: cell-based; details: 1.5 mM peptide; HEK293T/17 cells
T2 construct: Flag; expressed in transfected cells; host or cells: HEK293T/17 (ATCC CRL-11268)
T2 sequence (Q96RI0 18-385): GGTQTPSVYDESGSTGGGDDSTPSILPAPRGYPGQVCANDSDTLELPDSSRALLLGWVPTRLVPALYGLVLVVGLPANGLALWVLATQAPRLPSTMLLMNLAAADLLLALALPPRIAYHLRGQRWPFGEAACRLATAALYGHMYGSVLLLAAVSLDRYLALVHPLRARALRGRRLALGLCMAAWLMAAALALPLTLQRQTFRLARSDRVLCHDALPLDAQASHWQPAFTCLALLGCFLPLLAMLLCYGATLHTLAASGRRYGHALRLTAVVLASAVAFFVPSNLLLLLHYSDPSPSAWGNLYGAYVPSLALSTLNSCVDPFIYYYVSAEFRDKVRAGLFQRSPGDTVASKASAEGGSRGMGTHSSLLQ
Description: PAR4 calcium flux assays. PAR4-dependent calcium flux was measured using Fura2-QBT in platelets and HEK293T/17 cells with wild-type (WT) and mutant PAR4 (Tourdot et al., Arterioscler Thromb Vasc Biol. 2014; 34(12):2644-2650).
PAR4 mutant calcium flux assays. Using Quikchange Lightning Site-Directed mutagenesis (Agilent) per manufacturing instructions, pCMV-Flag-PAR4-S66E, pCMV-Flag-PAR4-S67E, and pCMV-Flag-PAR4-R68E were generated from mutation of pCMV-Flag-PAR4 and confirmed by sequencing (University of Utah DNA Sequencing Core). Prior to transfection, HEK293T/17 cells (ATCC CRL-11268) were seeded at 4.5×10^4/mL. The following day, cells were transfected with the plasmid of interest using Lipofectamine 2000 (Invitrogen, Carlsbad, CA, USA). Twenty-four hours after transfection, media was removed and replaced with Optimem w/Glutamax (Gibco, Carlsbad, CA, USA) containing vorapaxar (100 nM) (Cayman Chemical, Ann Arbor, MI, USA) and Fura2-QBT (Molecular Devices). Following incubation for 1 hour at 37° C., plate was placed in the Flexstation 3 (Molecular Devices) where agonists, Tyrode's Buffer, cathepsin G (2.5 μM), or α-thrombin (1.5 U/mL), were injected onto cells and calcium mobilization was monitored and recorded.

washed platelets [4] = test: Platelet activation by flow cytometry (PAC-1 binding, P-selectin); format: cell-based, human; details: 1 mM peptide vs buffer; washed platelets
Description: as §1, §2

dog washed platelets = test: Platelet aggregation of dog washed platelets; format: cell-based; details: 1 U/mL human thrombin, 1 μM human CatG or 1 mM RA-11mer
Text: (§3) Animal studies. Mouse platelets were isolated as previously described from C57BL/6 mice (Denorme et al., Blood. 2020; 135(6):429-440). Dog platelets were isolated from whole blood drawn into ACD using a similar isolation procedure as for human platelets. All animal studies were approved by the University of Utah Institutional Animal Care and Use Committee (18-10012).
(§4) Platelet and neutrophil isolation. Platelets and neutrophils were isolated as previously described (Yost et al., J Clin Invest. 2016; 126(10):3783-3798). Platelet isolation from dogs, rats and mice was approved by the IACUC. Platelet activation and aggregation were performed as previously described (Manne et al., Blood. 2020; 136(11): 1317-1329).
as §1

mouse washed platelets = test: Platelet aggregation of mouse washed platelets; format: cell-based; details: 1 U/mL human thrombin, 1 μM human CatG or 1 mM RA-11mer
Text: as §3, §4, §1

rat washed platelets = test: Platelet aggregation of rat washed platelets; format: cell-based; details: 1 U/mL human thrombin, 1 μM human CatG or 1 mM RA-11mer
Description: as §4, §1

GYPGQV-NH2 [the thrombin-generated PAR4 tethered ligand, reference compound]
peptide concentration producing maximal platelet aggregation (washed platelets [1]): 6 mM

RALLLG-NH2 [6mer from the CatG tethered ligand]
platelet aggregation induced by peptide (washed platelets [1]): not able to induce platelet aggregation

RALLLGWV [RALLLGWV 8mer, 8-mer PAR4 Tethered Ligand Fragment, intermediate length peptide]
ability to go into solution [2]: inability to go into solution

CCOC(=O)N[C@@H]1CC[C@@H]2[C@@H](C1)C[C@H]1C(=O)O[C@H](C)[C@H]1[C@H]2/C=C/c1ccc(-c2cccc(F)c2)cn1 [VPX, vorapaxar]
effect on thrombin-induced platelet aggregation (PAR-1; 0.1 U/mL thrombin): abolished | effect on PAR1 activation by PAR1 activation peptide (PAR-1; SFLLRN 10 μM): efficiently ablated PAR1 activation

ALLLGWVPTR (ALLLGWVPTR-NH2) [10-mer PAR4 Tethered Ligand Fragment]
platelet aggregation induced by peptide (washed platelets [1]): no discernable platelet aggregation | platelet calcium flux (washed platelets [3]): no discernable

RALLLGWVPTR (RALLLGWVPTR-NH2) [synthetic peptide representing the CatG-generated PAR4 tethered ligand]
calcium flux in HEK cells transfected with WT PAR4 compared with mock (WT human PAR4 (hPAR4)): induced calcium flux | granule release (P-selectin expression) (washed platelets [4]): increased | integrin activation (PAC-1 binding) (washed platelets [4]): increased | platelet aggregation, species comparison: humans (washed platelets [1]; 1 U/mL human thrombin, 1 μM human CatG or 1 mM RA-11mer): induced aggregation | potency as activator of PAR4, comparison (washed platelets [1]; from platelet aggregation data): more potent activator of PAR4 than the thrombin-generated tethered ligand | peptide concentration producing maximal platelet aggregation (washed platelets [1]): 1 mM | platelet aggregation induced by peptide (washed platelets [1]): increased | peak platelet calcium flux, CatG compared with RALLLGWVPTR (washed platelets [3]; RA-11mer 2 mM): similar | platelet calcium flux (washed platelets [3]): significant and sustained calcium flux | platelet aggregation, species comparison: dogs (dog washed platelets): induced aggregation | platelet aggregation, species comparison: mice (mouse washed platelets): induced aggregation only in humans and dogs | platelet aggregation, species comparison: rats (rat washed platelets): induced aggregation only in humans and dogs
